From patent US11382918B2, “Methods for treating Huntington's Disease” (PTC Therapeutics, Inc., priority 2017, dated 2022)
Structures can show the parent of a compound that is named as a salt.

tested on: Endogenous Huntingtin Protein (HTT); experiment: Endogenous Huntingtin Protein Assay (ELISA-based MSD electrochemiluminescence); type: cell-based; details: Table 1
Summary of the method: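 MSD electrochemiluminescence sandwich ELISA for endogenous HTT: sample lysates captured overnight at 4 °C on MW1 (expanded polyglutamine) or MAB2166 antibody. Detection used rabbit monoclonal #5656S, then goat anti-rabbit SULFO-TAG antibody, each 1 h at room temperature.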

Row | SMILES | IC50 [µM]
1 | CCc1nc(C)cn2nc(-c3cc(=O)n4cc(C5CCN(CC)CC5)ncc4n3)cc12 [compound 655, 2-(4-ethyl-6-methylpyrazolo[1,5-a]pyrazin-2-yl)-7-(1-ethylpiperidin-4-yl)-4H-pyrazino[1,2-a]pyrimidin-4-one] | 0.1 to 0.5
2 | Cc1cc(-c2cc(=O)n3cc(C4CCNCC4)nc(C)c3n2)cc2cn(C)nc12 [compound 871, 2-(2,7-dimethyl-2H-indazol-5-yl)-9-methyl-7-(piperidin-4-yl)-4H-pyrazino[1,2-a]pyrimidin-4-one hydrochloride (1:1)] | < 0.1
3 | CCc1cc(-c2cc(=O)n3cc(N4CCN[C@@H](C)C4)ccc3n2)cn2cc(C)nc12 [compound 639, 2-(8-ethyl-2-methylimidazo[1,2-a]pyridin-6-yl)-7-[(3S)-3-methylpiperazin-1-yl]-4H-pyrido[1,2-a]pyrimidin-4-one] | 3 to 33
4 | Cc1cn2cc(-c3cc(=O)n4cc(N5CCNCC5)ccc4n3)nc2cn1 [compound 74, 2-(6-methylimidazo[1,2-a]pyrazin-2-yl)-7-(piperazin-1-yl)-4H-pyrido[1,2-a]pyrimidin-4-one] | 1 to 3
5 | Cc1cn2nc(-c3cc(=O)n4cc(N5CCC(NCCO)CC5)cc(C)c4n3)cc2c(C)n1 [compound 609, 2-(4,6-dimethylpyrazolo[1,5-a]pyrazin-2-yl)-7-{4-[(2-hydroxyethyl)amino]piperidin-1-yl}-9-methyl-4H-pyrido[1,2-a]pyrimidin-4-one] | 3 to 33
6 | CCc1nc(C)cn2nc(-c3cc(=O)n4cc(C5CCN(C)CC5)cc(C)c4n3)cc12 [compound 774, 2-(4-ethyl-6-methylpyrazolo[1,5-a]pyrazin-2-yl)-9-methyl-7-(1-methylpiperidin-4-yl)-4H-pyrido[1,2-a]pyrimidin-4-one] | 3 to 33
7 | Cc1nc2ccc(-c3cc(=O)n4cc(C5=CCNCC5)ccc4n3)cc2o1 [compound 302, 2-(2-methyl-1,3-benzoxazol-6-yl)-7-(1,2,3,6-tetrahydropyridin-4-yl)-4H-pyrido[1,2-a]pyrimidin-4-one] | 0.1 to 0.5
8 | CCc1cc(-c2cc(=O)n3cc(N4CCN(CCO)[C@H](C)C4)ccc3n2)cn2cc(C)nc12 [compound 649, 2-(8-ethyl-2-methylimidazo[1,2-a]pyridin-6-yl)-7-[(3R)-4-(2-hydroxyethyl)-3-methylpiperazin-1-yl]-4H-pyrido[1,2-a]pyrimidin-4-one] | 0.5 to 1
9 | Cc1cn2cc(-c3cc(=O)n4cc(C5=CCN(C(C)C)CC5)ncc4n3)cc2c(C)n1 [compound 479, 2-(1,3-dimethylpyrrolo[1,2-a]pyrazin-7-yl)-7-[1-(propan-2-yl)-1,2,3,6-tetrahydropyridin-4-yl]-4H-pyrazino[1,2-a]pyrimidin-4-one] | 3 to 33
10 | CCN1CCC(c2cn3c(=O)cc(-c4cc(F)c5nc(C)cn5c4)nc3c(C)n2)CC1 [compound 877, 7-(1-ethylpiperidin-4-yl)-2-(8-fluoro-2-methylimidazo[1,2-a]pyridin-6-yl)-9-methyl-4H-pyrazino[1,2-a]pyrimidin-4-one] | < 0.1
11 | Cc1cn2cc(-c3cc(=O)n4cc(N5CCN(CCOCCO)[C@@H](C)C5)ccc4n3)cc(F)c2n1 [compound 540, 2-(8-fluoro-2-methylimidazo[1,2-a]pyridin-6-yl)-7-{(3S)-4-[2-(2-hydroxyethoxy)ethyl]-3-methylpiperazin-1-yl}-4H-pyrido[1,2-a]pyrimidin-4-one] | 1 to 3
12 | Cn1cc2cc(-c3cc(=O)n4cc(N5CCNCC5)ncc4n3)ccc2n1 [compound 586, 2-(2-methyl-2H-indazol-5-yl)-7-(piperazin-1-yl)-4H-pyrazino[1,2-a]pyrimidin-4-one] | 3 to 33
13 | Cc1cn2nc(-c3cc(=O)n4cc(N5C[C@@H](C)N[C@@H](C)C5)ccc4n3)cc2c(C)n1 [compound 131, 7-[(3R,5S)-3,5-dimethylpiperazin-1-yl]-2-(4,6-dimethylpyrazolo[1,5-a]pyrazin-2-yl)-4H-pyrido[1,2-a]pyrimidin-4-one] | 3 to 33
14 | CN1CCC(c2cn3c(=O)cc(-c4ccc5nn(C)cc5c4)nc3cn2)CC1 [compound 567, 2-(2-methyl-2H-indazol-5-yl)-7-(1-methylpiperidin-4-yl)-4H-pyrazino[1,2-a]pyrimidin-4-one] | 3 to 33
15 | CCc1nc(C)cn2nc(-c3cc(=O)n4cc(N(C)C5CC(C)(C)NC(C)(C)C5)cc(C)c4n3)cc12 [compound 851, 2-(4-ethyl-6-methylpyrazolo[1,5-a]pyrazin-2-yl)-9-methyl-7-[methyl(2,2,6,6-tetramethylpiperidin-4-yl)amino]-4H-pyrido[1,2-a]pyrimidin-4-one] | 3 to 33
16 | Cc1cc2cc(-c3cc(=O)n4cc(N5CCN(C)CC5)ccc4n3)oc2c(C)n1 [compound 487, 2-(5,7-dimethylfuro[2,3-c]pyridin-2-yl)-7-(4-methylpiperazin-1-yl)-4H-pyrido[1,2-a]pyrimidin-4-one] | 0.5 to 1
17 | CCc1nc(C)cn2nc(-c3cc(=O)n4cc(C5CCN(CCO)CC5)cc(C)c4n3)cc12 [compound 793, 2-(4-ethyl-6-methylpyrazolo[1,5-a]pyrazin-2-yl)-7-[1-(2-hydroxyethyl)piperidin-4-yl]-9-methyl-4H-pyrido[1,2-a]pyrimidin-4-one] | 1 to 3

Row | SMILES | IC50 [µM]
18 | Cc1cn2cc(-c3cc(=O)n4cc(C5CCNCC5)ccc4n3)ccc2n1 [compound 438, 2-(2-methylimidazo[1,2-a]pyridin-6-yl)-7-(piperidin-4-yl)-4H-pyrido[1,2-a]pyrimidin-4-one] | 0.5 to 1
19 | COc1cc(-c2ccnc(O)c2)ccc1-c1cc(=O)n2cc(C3=CCNCC3)ccc2n1 [compound 849, 2-[4-(2-hydroxypyridin-4-yl)-2-methoxyphenyl]-7-(1,2,3,6-tetrahydropyridin-4-yl)-4H-pyrido[1,2-a]pyrimidin-4-one hydrochloride (1:1)] | 3 to 33
20 | CCc1nc(C)cn2nc(-c3cc(=O)n4cc(N5CCN(CCCF)[C@H](C)C5)ccc4n3)cc12 [compound 667, 2-(4-ethyl-6-methylpyrazolo[1,5-a]pyrazin-2-yl)-7-[(3R)-4-(3-fluoropropyl)-3-methylpiperazin-1-yl]-4H-pyrido[1,2-a]pyrimidin-4-one] | 1 to 3
21 | Cn1ncc2cc(-c3cc(=O)n4cc(C5=CCNCC5)ncc4n3)ccc21 [compound 505, 2-(1-methyl-1H-indazol-5-yl)-7-(1,2,3,6-tetrahydropyridin-4-yl)-4H-pyrazino[1,2-a]pyrimidin-4-one] | 3 to 33
22 | CCN1CC=C(c2ccc3nc(-c4ccn5nc(C)cc5c4)cc(=O)n3c2)CC1 [compound 858, 7-(1-ethyl-1,2,3,6-tetrahydropyridin-4-yl)-2-(2-methylpyrazolo[1,5-a]pyridin-5-yl)-4H-pyrido[1,2-a]pyrimidin-4-one] | 1 to 3
23 | Cc1cc(-c2cc(=O)n3cc(N4CCN[C@H](C)C4)ccc3n2)cc2cn(C)nc12 [compound 741, 2-(2,7-dimethyl-2H-indazol-5-yl)-7-[(3R)-3-methylpiperazin-1-yl]-4H-pyrido[1,2-a]pyrimidin-4-one] | 0.5 to 1
24 | O=c1cc(-c2ccc(OC(F)F)c(F)c2)nc2ccc(N3CCNCC3)cn12 [compound 838, 2-[4-(difluoromethoxy)-3-fluorophenyl]-7-(piperazin-1-yl)-4H-pyrido[1,2-a]pyrimidin-4-one] | 3 to 33
25 | Cc1cn2nc(-c3cc(=O)n4cc(C5CCN(C)CC5)ncc4n3)cc2c(C)n1 [compound 503, 2-(4,6-dimethylpyrazolo[1,5-a]pyrazin-2-yl)-7-(1-methylpiperidin-4-yl)-4H-pyrazino[1,2-a]pyrimidin-4-one] | 1 to 3
26 | CCc1nc(C)cn2nc(-c3cc(=O)n4cc(N5CCN(CCO)CC5)ccc4n3)cc12 [compound 549, 2-(4-ethyl-6-methylpyrazolo[1,5-a]pyrazin-2-yl)-7-[4-(2-hydroxyethyl)piperazin-1-yl]-4H-pyrido[1,2-a]pyrimidin-4-one] | 3 to 33
27 | C[C@@H]1CN(c2ccc3nc(-c4ccc5c(cnn5C)c4)cc(=O)n3c2)CCN1 [compound 545, 2-(1-methyl-1H-indazol-5-yl)-7-[(3R)-3-methylpiperazin-1-yl]-4H-pyrido[1,2-a]pyrimidin-4-one] | 3 to 33
28 | Cc1cn2cc(-c3cc(=O)n4cc(C5CCN(C(C)C)CC5)ncc4n3)cc(Cl)c2n1 [compound 595, 2-(8-chloro-2-methylimidazo[1,2-a]pyridin-6-yl)-7-[1-(propan-2-yl)piperidin-4-yl]-4H-pyrazino[1,2-a]pyrimidin-4-one] | 1 to 3
29 | Cc1cc2cc(-c3cc(=O)n4cc(N5CCN[C@@H](C)C5)ccc4n3)ccn2n1 [compound 856, 7-[(3S)-3-methylpiperazin-1-yl]-2-(2-methylpyrazolo[1,5-a]pyridin-5-yl)-4H-pyrido[1,2-a]pyrimidin-4-one hydrochloride (1:2)] | 1 to 3
30 | Cc1cc2cc(-c3cc(=O)n4cc(N5CCNCC5)ccc4n3)ccn2n1 [compound 859, 2-(2-methylpyrazolo[1,5-a]pyridin-5-yl)-7-(piperazin-1-yl)-4H-pyrido[1,2-a]pyrimidin-4-one hydrochloride (1:2)] | 1 to 3
31 | Cc1cn2nc(-c3cc(=O)n4cc(N5CCN6CCC[C@H]6C5)ccc4n3)cc2c(C)n1 [compound 336, 2-(4,6-dimethylpyrazolo[1,5-a]pyrazin-2-yl)-7-[(8aS)-hexahydropyrrolo[1,2-a]pyrazin-2(1H)-yl]-4H-pyrido[1,2-a]pyrimidin-4-one] | 3 to 33
32 | COc1ncc(-c2cc(=O)n3cc(N4CCNCC4)ccc3n2)cc1Cl [compound 96, 2-(5-chloro-6-methoxypyridin-3-yl)-7-(piperazin-1-yl)-4H-pyrido[1,2-a]pyrimidin-4-one] | 3 to 33
33 | Cc1cn2nc(-c3cc(=O)n4cc(N5CCNCC5)ccc4n3)cc2c(N(C)C)n1 [compound 688, 2-[4-(dimethylamino)-6-methylpyrazolo[1,5-a]pyrazin-2-yl]-7-(piperazin-1-yl)-4H-pyrido[1,2-a]pyrimidin-4-one] | 3 to 33
34 | Cc1cn2nc(-c3cc(=O)n4cc(C5CCN(C6CC6)CC5)ccc4n3)cc2c(C)n1 [compound 641, 7-(1-cyclopropylpiperidin-4-yl)-2-(4,6-dimethylpyrazolo[1,5-a]pyrazin-2-yl)-4H-pyrido[1,2-a]pyrimidin-4-one] | 3 to 33
